{"source": "paper PMC7857491", "about": "“Quantification and characterization of the 5′ exonuclease activity of the lysosomal nuclease PLD3 by a novel cell-based assay” (The Journal of Biological Chemistry, 2020)", "target": "Phospholipase D3 (PLD3) (Homo sapiens, UniProt Q8IV08)", "sequence (Q8IV08 whole entry)": "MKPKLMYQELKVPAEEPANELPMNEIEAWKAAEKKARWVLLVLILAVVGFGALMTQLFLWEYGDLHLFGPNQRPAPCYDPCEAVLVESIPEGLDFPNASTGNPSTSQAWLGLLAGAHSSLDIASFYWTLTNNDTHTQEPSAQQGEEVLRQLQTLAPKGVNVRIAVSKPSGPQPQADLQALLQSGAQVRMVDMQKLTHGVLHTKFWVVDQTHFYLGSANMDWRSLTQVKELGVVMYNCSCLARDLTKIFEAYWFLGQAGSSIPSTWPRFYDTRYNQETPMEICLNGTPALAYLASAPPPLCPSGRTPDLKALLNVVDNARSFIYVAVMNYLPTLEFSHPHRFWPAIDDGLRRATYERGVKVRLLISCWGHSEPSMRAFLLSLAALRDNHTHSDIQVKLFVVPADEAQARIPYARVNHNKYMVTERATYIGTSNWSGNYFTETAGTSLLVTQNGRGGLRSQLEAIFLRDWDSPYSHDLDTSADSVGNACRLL", "data": [{"smiles": "[O]=[V]([OH])([OH])[OH]", "note": "[orthovanadate]", "values": [{"measurement": "IC50", "result": 10, "unit": "µM"}]}]}
